Among the test systems are Pseudomonas aeruginosa; Lactococcus garvieae; Streptococcus iniae; Vibrio alginolyticus; Vibrio harveyi; Vibrio parahaemolyticus; Staphylococcus aureus.
What all share (experiment): ≥ marks a high value that may be exact or a test limit, other limits are often not marked, values filed in µg/mL are converted to µM
For experiment [1], the system named is Staphylococcus aureus KO-4.
Experiment [2] deals with Trichophyton mentagrophytes IFO 5466.
Experiment [3] relates to Trypanosoma brucei brucei GUT Tat3.1.
The test system of experiment [4] is Bacillus subtilis KCTC 3068.
Experiment [5] relates to Candida albicans KCTC 7965.
For experiment [6], the system named is Escherichia coli KCTC 1682.
Experiment [7] relates to Pseudomonas aeruginosa CCARM 2095.
The subject of experiment [8] is Pseudomonas aeruginosa CCARM 2109.
Experiment [9] relates to Pseudomonas aeruginosa KCTC 1637.
The test system of experiment [10] is Salmonella typhimurium KCTC 1926.
Experiment [11] relates to Staphylococcus aureus CCARM 3001.
Experiment [12] deals with Staphylococcus aureus CCARM 3543.
The test system of experiment [13] is Staphylococcus aureus KCTC 1621.
Experiment [14] deals with Staphylococcus epidermidis KCTC 1917.
Experiment [15] relates to Bacillus subtilis IFO 3336.
In experiment [16] the test system is Escherichia coli IFO 3301.
The subject of experiment [17] is Enterobacter cloacae BCRC 10401.
For experiment [18], the system named is Escherichia coli BCRC 10675.
The test system of experiment [19] is Klebsiella aerogenes BCRC 10370.
The subject of experiment [20] is Klebsiella oxytoca BCRC 13985.
For experiment [21], the system named is Listeria monocytogenes BCRC 14845.
For experiment [22], the system named is Pseudomonas aeruginosa BCRC 10944.
Experiment [23] concerns Staphylococcus aureus BCRC 10780.
Experiment [24] concerns Staphylococcus aureus BCRC 10781.
The subject of experiment [25] is Staphylococcus xylosus BCRC 12930.
The subject of experiment [26] is Streptococcus equinus BCRC 14729.
For experiment [27], the system named is Vibrio alginolyticus BCRC 12829.
For experiment [28], the system named is Vibrio anguillarum serotype O1.
Experiment [29] concerns Vibrio parahaemolyticus BCRC 10806.
Experiment [30] has as its system Yersinia enterocolitica BCRC 13999.
In experiment [31] the test system is Bacillus subtilis ATCC 6633.
Experiment [32] has as its system Candida albicans ATCC 36232.
For experiment [33], the system named is Corynebacterium diphtheriae ATCC 8024.
The test system of experiment [34] is Escherichia coli ATCC 2592.
Experiment [35] deals with Micrococcus luteus ATCC 9341.
In experiment [36] the test system is Pseudomonas aeruginosa ATCC 9027.
Experiment [37] relates to Shigella flexneri ATCC 203.
Experiment [38] has as its system Staphylococcus aureus ATCC 6538.
Experiment [39] has as its system Staphylococcus epidermidis ATCC 12228.

Values after ≈ are worked out from the molar mass of the structure shown. Some results are limits rather than exact numbers.

In general, MIC refers to the least concentration at which growth counts as inhibited. For `CC[C@H](C)[C@H](NC(=O)[C@H](CCCN=C(N)N)NC(=O)[C@H](CC(C)C)NC(=O)[C@H](CC(C)C)NC(=O)[C@H](CC(C)C)NC(=O)[C@@H](N)CCCN=C(N)N)C(=O)NCC(=O)N[C@@H](CCCN=C(N)N)C(=O)N[C@@H](CCCN=C(N)N)C(N)=O` [RLLLRIGRR], the MIC is 347 µM (≈ 400 µg/mL) in the experiment on Pseudomonas aeruginosa, at least 521 µM in [1], 13 µM (≈ 15 µg/mL) in experiment [2] and at least 325 µM in experiment [3].

In the case of `CC(C)C[C@H](NC(=O)[C@H](Cc1c[nH]c2ccccc12)NC(=O)[C@H](CCCNC(=N)N)NC(=O)[C@H](CCCNC(=N)N)NC(=O)[C@H](Cc1c[nH]c2ccccc12)NC(=O)[C@H](CCCNC(=N)N)NC(=O)[C@H](CCCNC(=N)N)NC(=O)[C@H](Cc1c[nH]c2ccccc12)NC(=O)[C@H](CC(C)C)NC(=O)[C@@H](N)CCCNC(=N)N)C(=O)N[C@@H](CCCNC(=N)N)C(=O)O` [RLWRRWRRWLR], the minimal inhibitory concentration (MIC) is 4 µM (≈ 6.96 µg/mL) in experiment [4]; at least 64 µM in [5]; 8 µM (≈ 13.9 µg/mL) in experiment [6]; 16 µM (≈ 27.8 µg/mL) in [7]; 16 µM (≈ 27.8 µg/mL) in experiment [8]; 8 µM (≈ 13.9 µg/mL) in [9]. Further, the MIC came to 2 µM (≈ 3.48 µg/mL) in experiment [10]; 8 µM (≈ 13.9 µg/mL) in experiment [11]; 2 µM (≈ 3.48 µg/mL) in [12]; 4 µM (≈ 6.96 µg/mL) in experiment [13]; 2 µM (≈ 3.48 µg/mL) in experiment [14].

In the case of `NC(N)=NCCC[C@H](NC(=O)[C@H](Cc1cnc[nH]1)NC(=O)[C@H](CCCN=C(N)N)NC(=O)[C@H](Cc1cnc[nH]1)NC(=O)[C@@H](N)CCCN=C(N)N)C(=O)N[C@@H](Cc1cnc[nH]1)C(=O)O` [RHRHRH], the minimal inhibitory concentration (MIC) in experiment [15] and in [16] was at least 111 µM in each case.

On to `CC(C)C[C@H](NC(=O)[C@H](C)NC(=O)[C@H](CC(N)=O)NC(=O)[C@H](C)NC(=O)[C@H](Cc1ccccc1)NC(=O)[C@H](CCCCN)NC(=O)[C@H](CCCCN)NC(=O)[C@H](C)NC(=O)[C@H](CC(C)C)NC(=O)[C@H](CC(N)=O)NC(=O)[C@H](C)NC(=O)[C@H](CC(C)C)NC(=O)[C@H](CCCCN)NC(=O)[C@H](CCCCN)NC(=O)[C@H](C)NC(=O)[C@H](Cc1ccc(O)cc1)NC(=O)[C@H](CC(N)=O)NC(=O)[C@H](Cc1ccc(O)cc1)NC(=O)CN)C(=O)N[C@@H](Cc1c[nH]c2ccccc12)C(=O)O` [GYNYAKKLANLAKKFANALW], for which the MIC in experiment [17] came to 3.5 µM (≈ 8 µg/mL); in experiment [18] it was 3.5 µM (≈ 8 µg/mL); in experiment [19] it was 7 µM (≈ 16 µg/mL); in experiment [20], 7 µM (≈ 16 µg/mL); with Lactococcus garvieae, 14 µM (≈ 32 µg/mL); in [21], 7 µM (≈ 16 µg/mL). For the same compound, the minimal inhibitory concentration (MIC) in [22] was 14 µM (≈ 32 µg/mL); in experiment [23], 7 µM (≈ 16 µg/mL); in experiment [24] it was 14 µM (≈ 32 µg/mL); in experiment [25], 3.5 µM (≈ 8 µg/mL); in experiment [26], at least 56 µM; in the experiment on Streptococcus iniae, 28 µM (≈ 64 µg/mL). Also, the minimal inhibitory concentration (MIC) was at least 56 µM in experiment [27]; 1.75 µM (≈ 4 µg/mL) in the experiment on Vibrio alginolyticus; 1.75 µM (≈ 4 µg/mL) in experiment [28]; 3.5 µM (≈ 8 µg/mL) with Vibrio harveyi; at least 56 µM in experiment [29]; 1.75 µM (≈ 4 µg/mL) in the experiment with Vibrio parahaemolyticus. In [30], this compound had a minimum inhibitory concentration (MIC) of 14 µM (≈ 32 µg/mL).

For the compound `CC(C)C[C@H](NC(=O)[C@@H]1CSSC[C@H](NC(=O)[C@H](C)NC(=O)[C@H](C)NC(=O)[C@@H](N)CC(=O)O)C(=O)N[C@@H](C)C(=O)N[C@@H](C)C(=O)N[C@@H](Cc2cnc[nH]2)C(=O)N1)C(=O)N[C@@H](Cc1ccccc1)C(=O)N[C@@H](CCCN=C(N)N)C(N)=O` [DAACAAHCLFR], the MIC in [31] is at least 84.9 µM; in [32], at least 84.9 µM; in [33], at least 84.9 µM; in [34], at least 84.9 µM; in experiment [35], at least 84.9 µM; in experiment [36] it was above 84.9 µM. Besides, the minimum inhibitory concentration (MIC) in experiment [37] is at least 84.9 µM; in experiment [38] it was above 84.9 µM; against Staphylococcus aureus, above 84.9 µM; in experiment [39], above 84.9 µM.
